Measured values reported in US12630523B2, “Isoquinoline derivatives for use as antiviral and antitumour agents” (priority 2021, dated 2026).

Legend:
[1] = Pharmacokinetics of VSP034 and VSP035 after oral administration of a liposomal formulation; format: in vivo, female Sprague-Dawley rats; conditions: for AUC(0-inf) / Cmax / MRT inf / Tmax / half-life: female, Sprague-Dawley; for AUC(0-inf): AUC0-inf; for MRT inf: MRT0-inf
Protocol: The pharmacokinetic parameters of VSP034 and VSP035 encapsulated as liposomal formulation were assessed after the administration of a single 100 mg/kg dose by oral gavage to 6 female Sprague-Dawley rats weighting 250 grams (+25 g). The animals were randomized into two experimental groups (Groups 1 and 2), each composed of 3 rats. Rats belonging to group 1 were administered with VSP034 and rats belonging to group 2 were administered with VSP035. Blood was collected at baseline and 15 min, 30 min, 1, 2, 4, 6, 8, and 24 hours after the oral gavage. The rats were sacrificed 24 hours after the dosing. Blood was collected at each timepoint from the caudal vein, with the exception of the last collection (24 hours), which was performed by intracardiac puncture at the moment of sacrifice under isoflurane anesthesia. The animals were weighted immediately before the dosing to assess the proper dose and carefully monitored during the experiment. They were kept in standard housing conditions, meeting the legal requirements for the correct housing of rodents for a period not exceeding the maximum experimental endpoints. Ad libitum access to water and food was allowed. […] Humane endpoints have not been reached. The pharmacokinetic analysis was performed using Microsoft Excel plug-in PK Solver. Pharmacokinetic parameters of two compounds are compared with the software GraphPad Prism ver. 8.0 by Student's t test for unpaired data. A p value <0.05 is considered statistically significant.
Analytical method: Compound analysis was performed following the bioanalytical method as in Test 13. In this study, carbamazepine was used as an internal standard.
Pharmacokinetic analysis: A pharmacokinetic analysis of VSP034 and VSP035 was performed using the Excel plug-in 2.0 PK Solver. The results have been fitted according to a non-compartmental modelling following extravascular administration. Concentration-vs-time curves for VSP034 and VSP035.
The main pharmacokinetic parameters (half-life, t1/2; time to maximum plasma concentration, Tmax; maximum plasma concentration, Cmax, AUC Extrapolated to Infinity, AUC0-inf; mean residence time, MRT; Apparent Volume of Distribution During Terminal Phase, Vz/F; and apparent oral clearance, CL/F) were calculated from the coefficients and exponents of the best-fits by using standard formulae.

[2] = tested on: SARS-CoV-2; experiment: SARS-CoV-2/Huh7-EGFP HTS antiviral Assay (96-well); format: cell-based; conditions: Severe acute respiratory syndrome coronavirus 2, Huh-7; sublethal dose of 10 μM, Huh7, n4
[3] = tested on: peripheral blood mononuclear cells (PBMC); experiment: Monolayer SRB assay, PBMC; format: cell-based
Protocol: (§1) Various cell culture cells grown as monolayers are harvested from exponential growing cultures after treatment with various OC compounds at different concentrations. For this depending on the cell line, 10.000 to 30.000 cells were plated in 96-well flat-bottom microtiter plates. After a 24 h recovery period to allow cells to resume exponential growth, supernatants are discarded and 100 μl of culture medium (eight control wells/plate) or culture medium with the test compound are added by a liquid handling robotic system (Microlab® Starlet, Hamilton) and treatment continued for 72 hrs. Compounds are applied at 9 concentrations and eight wells/concentration). At least three independent experiments are performed. For SRB staining, cells are fixed with SRB01 (Tab. 5) for 1 h at 4° C. […] Optical density is assessed using a plate-reader (Sunrise, Tecan©) at 540 nm.
(§2) Concentrations required for half maximal response of the compound for cell growth inhibition (EC50) is calculated by non-linear regression (log[conc. of inhibitor] versus response (% T/C)) using the analysis software GraphPad Prism®, Prism 5 for windows, version 5.01 (GraphPad Software Inc., CA).

[4] = tested on: Hela (ATCC CCL-2); experiment: Monolayer SRB assay, Hela; format: cell-based; conditions: Homo sapiens, 72 hrs, HPV18
Protocol: as §1, §2

[5] = tested on: Retinoblastoma Protein pRb1; experiment: Western blot of SiHa (HPV+) cell extracts; format: cell-based, human; conditions: 10 μM, 12 and 24 hours
[6] = tested on: SiHa (ATCC HTB-35); experiment: Monolayer SRB assay, SiHa; format: cell-based; conditions: Homo sapiens, 72 hrs, HPV16
Protocol: as §1, §2

[7] = rat, in vivo, po, 100 mg/kg, Mean
[8] = rat, in vivo, po, 100 mg/kg, Median

Row | SMILES | AUC(0-inf) [1, 7] [ng·h/mL] | AUC(0-inf) [1, 8] [ng·h/mL] | Cmax [1, 7] [ng/mL] | Cmax [1, 8] [ng/mL] | MRT inf [1, 7] [h] | MRT inf [1, 8] [h] | Tmax [1, 7] [h] | Tmax [1, 8] [h] | half-life ([1]; rat, in vivo, po, 100 mg/kg, t1/2, Mean) [h] | half-life ([1]; rat, in vivo, po, 100 mg/kg, t1/2, Median) [h] | Vz/F, Mean ([1]; rat, in vivo, po, 100 mg/kg) [L/g] | Vz/F, Median ([1]; rat, in vivo, po, 100 mg/kg) [L/g] | condition of the rats after administration of the liposomal formulation ([1]; single 100 mg/kg oral gavage, observed 24 hours) | AUC relative to that of VSP034 ([1]; single 100 mg/kg oral, significantly higher) [fold] | inhibition at 10 µM [2] [%] | EC50 [3] [µM] | EC50 [4] [µM] | Rb protein signals [5] | EC50 [6] [µM]
1 | CN1CCC(CN2C(=O)c3ccccc3[C@H](C(=O)Nc3cccc(N4CCN(C)CC4)c3)[C@H]2c2ccc(C(F)(F)F)cc2)CC1 [VSP035, (3S,4S)-N-[3-(4-methylpiperazin-1-yl)phenyl]-2-[(1-methylpiperidin-4-yl)methyl]-1-oxo-3-[4-(trifluoromethyl)phenyl]-1,2,3,4-tetrahydroisoquinoline-4-carboxamide] | 2230 | 1480 | 246 | 277 | 6.83 | 6.59 | 2.42 | 1 | 4.43 | 3.57 | 0.291 | 0.278 | did not show any sign of suffering or abnormal behavior | 4 | 72 ± 7.7 |  |  |  | 
2 | Cc1ccc(CN2C(=O)c3ccccc3[C@H](C(=O)Nc3cccc(N4CCN(C)CC4)c3)[C@@H]2c2ccc(C(F)(F)F)cc2)cc1 [OC246, N-[3-(4-methylpiperazin-1-yl)phenyl]-2-[(4-methylphenyl)methyl]-1-oxo-3-[4-(trifluoromethyl)phenyl]-1,2,3,4-tetrahydroisoquinoline-4-carboxamide] |  |  |  |  |  |  |  |  |  |  |  |  |  |  |  | > 100 | 2.68 | increase of Rb protein signals | 3.53
